Values after ≈ are worked out from the molar mass of the structure shown. Values joined by “and” are separate entries in the source; they are usually repeats but may differ in a detail not shown here. Equal values may be shown once. “Also recorded” adds a separate entry of the source. Read-outs that look alike come from different tables or passages of the source.
Key:
M. tuberculosis H37Ra = conditions: cited from earlier work
MRSA SA 3202 [1] = experiment: Synergy effect with clinically used drugs (fractional inhibitory concentration); format: cell-based, Staphylococcus aureus; conditions: for Separate MIC: MRSA SA 3202, each drug alone in the checkerboard plate; for Combined effect with vancomycin: additivity 0.5 < ΣFIC < 1
MRSA 63718 [2] = experiment: as above; format: cell-based, Staphylococcus aureus; conditions: MRSA 63718, each drug alone in the checkerboard plate
[3] = system: Fusarium avenaceum (Fr.) Sacc. IMI 319947; experiment: In vitro antifungal activity, mycelial growth (MIC); format: cell-based; conditions: F. avenaceum mycelial growth
[4] = system: Bipolaris sorokiniana conidium germination; experiment: Inhibition of Bipolaris sorokiniana conidium germination; format: cell-based; conditions: 48 h, read-out: Inhibition (%) Compared to Negative Control, conidium germination
[5] = system: Bipolaris sorokiniana (Sacc.) Shoemaker H-299; experiment: In vitro antifungal activity, mycelial growth (MIC); format: cell-based; conditions: B. sorokiniana mycelial growth; for MIC: Bipolaris sorokiniana
[6] = system: Nicotiana tabacum var. Samsun; experiment: In vivo toxicity against plant cells (leaf injection); conditions: water solutions 1× MIC and 4× MIC injected into leaves, checked visually for 5 weeks
Experimental: Nicotiana tabacum var. Samsun was used for this test [88].
Nicotiana tabacum var. Samsun was used for this test. […] As the negative control, solutions of DMSO in the same concentration were used. The positive control was 5% DMSO, which should be toxic to the plant cells. The aqueous solutions were injected into the plant leaves by a syringe (needle 27G × ¾”) to fill area approx. 1 cm^2 [88]. The test was made in triplicates in three different plants. The plants were kept in a greenhouse on direct sunlight. The effect of the compounds was visually checked every day for 5 weeks.

Staphylococcus aureus = experiment: Pre-test subcultivation of aliquots on agar (minimal bactericidal concentration); format: cell-based
MRSA SA 630 [7] = experiment: Synergy effect with clinically used drugs (fractional inhibitory concentration); format: cell-based, Staphylococcus aureus; conditions: for Separate MIC: MRSA SA 630, each drug alone in the checkerboard plate; for Combined effect with vancomycin: additivity 0.5 < ΣFIC < 1
MRSA 63718 [8] = experiment: In vitro antibacterial evaluation, broth dilution micro-method (MIC); format: cell-based, Staphylococcus aureus; conditions: 24 h, read-out: MIC MRSA 63718
THP-1 cells = experiment: In vitro antiproliferative assay (WST-1); format: cell-based, human; conditions: WST-1, 24 h, highest concentration 30 μM, read-out: Tox IC50 (antiproliferative)
Experimental: The activity of this enzyme directly correlates with the number of metabolically active cells in the culture. […] Human monocytic leukemia THP-1 cells were used for in vitro antiproliferative assay. […] Cells were passaged at approximately one-week intervals. […] The maximum concentration of DMSO in the assays never exceeded 0.1%. Subsequently, the cells were incubated at 37 °C with 5% CO2 for 24 h. […] The median inhibition concentration values, IC50, were deduced through the production of a dose-response curve. All data were evaluated using GraphPad Prism 5.00 software (GraphPad Software, San Diego, CA, USA).

[9] = Lipophilicity determination by RP-HPLC (capacity factor k / log k); conditions: C18, isocratic MeOH 72%/H2O 28%
[10] = system: Staphylococcus aureus ATCC 29213; experiment: In vitro antibacterial evaluation, broth dilution micro-method (MIC); format: cell-based; conditions: read-out: MIC SA
S. aureus ATCC 29213 = experiment: Dynamics of antibacterial effect (time-kill curves); format: cell-based, Staphylococcus aureus; conditions: 4× MIC, after 8 h; bactericidal = −3log decrease of CFU/mL
[11] = system: photosynthetic electron transport (PET) in spinach chloroplasts; experiment: Inhibition of photosynthetic electron transport (PET) in spinach chloroplasts (Hill reaction, DCPIP); format: biochemical, Spinacia oleracea L.
Experimental: Chloroplasts were prepared from spinach (Spinacia oleracea L.) according to Masarovicova and Kralova. The inhibition of photosynthetic electron transport (PET) in spinach chloroplasts was determined spectrophotometrically (Genesys 6, Thermo Scientific), using an artificial electron acceptor 2,6-dichlorophenol-indophenol (DCIPP) according to Kralova et al., and the rate of photosynthetic electron transport was monitored as a photoreduction of DCPIP. The measurements were carried out in phosphate buffer (0.02 mol/L, pH 7.2) containing sucrose (0.4 mol/L), MgCl2 (0.005 mol/L), and NaCl (0.015 mol/L). The chlorophyll content was 30 mg/L in these experiments, and the samples were irradiated (~100 W/m^2 with 10 cm distance) with a halogen lamp (250 W) using a 4 cm water filter to prevent warming of the samples (suspension temperature 22 °C). The studied compounds were dissolved in DMSO due to their limited water solubility.

MRSA SA 630 [12] = experiment: In vitro antibacterial evaluation, broth dilution micro-method (MIC); format: cell-based, Staphylococcus aureus; conditions: 24 h, read-out: MIC MRSA SA 630
MRSA SA 3202 [13] = experiment: as above; format: cell-based, Staphylococcus aureus; conditions: 24 h, read-out: MIC MRSA SA 3202
[14] = system: S. aureus ATCC 29213 biofilm formation; experiment: Biofilm inhibition assay (crystal violet); format: cell-based, Staphylococcus aureus
[15] = Staphylococcus aureus, ATCC29213, 24 h
[16] = MRSA SA 3202, synergy ΣFIC ≤ 0.5

In the case of `O=C(Nc1cccc(C(F)(F)F)c1)c1ccc2cccc(O)c2n1` [8-hydroxy-N-(3-trifluoromethylphenyl)quinoline-2-carbox-amide], the “decrease of the viability of M. tuberculosis H37Ra to” value (M. tuberculosis H37Ra) is listed as 18.8%.
With `CN(C)[C@@H]1C(O)=C(C(N)=O)C(=O)[C@@]2(O)C(O)=C3C(=O)c4c(O)cccc4[C@@](C)(O)[C@H]3C[C@@H]12` [TET, tetracycline, reference compound] the “Separate MIC” value (MRSA SA 3202 [1]) was 64 µg/mL and the “Separate MIC” value (MRSA 63718 [2]) was 128 µg/mL.
With `CCCCNC(=O)n1c(NC(=O)OC)nc2ccccc21` [BNM, benomyl, reference compound] the MIC ([3]; Fusarium avenaceum) was 1.94 µM and 0.5 µg/mL, the inhibition at 5 µg/mL ([4]; 5 μg/mL) was 100% and the inhibition at 10 µg/mL ([4]; 10 μg/mL) was 100%. For the same molecule, the MIC [5] was 17.2 µM and 5 µg/mL.
For `O=C(/C=C/c1ccccc1)Nc1cccc(C(F)(F)F)c1` [Compound 6, (2E)-3-Phenyl-N-[3-(trifluoromethyl)phenyl]prop-2-enamide], the “in vivo toxicity against plant cells” value [6] was “nontoxic effect; also recorded: no visible influence on the plant tissue”, the minimal bactericidal concentrations (Staphylococcus aureus) was at most 4 × MIC and the “Separate MIC” value (MRSA SA 630 [7]) was 8 µg/mL. For the same molecule, the “Combined effect with vancomycin” value (MRSA SA 630 [7]; MRSA SA 630) was “additivity”, the “Separate MIC” value (MRSA SA 3202 [1]) was 16 μg/mL and 8/8 μg/mL and 8 μg/mL and the “Combined effect with vancomycin” value (MRSA SA 3202 [1]; MRSA SA 3202) was “additivity”. For the same molecule, the MIC (MRSA 63718 [8]) was 27.47 µM (≈ 8 µg/mL), the MIC (MRSA 63718 [8]; Staphylococcus aureus, MRSA) was 27.5 µM and 8 µg/mL and the MIC [3] was 54.93 µM (≈ 16 µg/mL). For the same molecule, the MIC ([3]; Fusarium avenaceum) was 54.9 µM and 16 µg/mL, the IC50 (THP-1 cells; Homo sapiens, THP-1, 24 h) was 22 µM and the IC50 (THP-1 cells) was 22.7 ± 1.73 µM. For the same molecule, the log k [9] was 0.4859, the MIC ([10]; S. aureus ATCC 29213, 24 h) was 27.47 µM (≈ 8 µg/mL) and the MIC [10, 15] was 27.5 µM and 8 µg/mL. For the same molecule, the “bactericidal effect in time-kill curve assay” value (S. aureus ATCC 29213) was “very close to the bactericidal level”, the IC50 [11] was 189 µM and the MIC (MRSA SA 630 [12]) was 27.47 µM (≈ 8 µg/mL). The MIC (MRSA SA 630 [12]; Staphylococcus aureus, MRSA) was 27.5 µM and 8 µg/mL, the MIC (MRSA SA 3202 [13]) was 27.47 µM (≈ 8 µg/mL) and the MIC (MRSA SA 3202 [13]; Staphylococcus aureus, MRSA) was 27.5 µM and 8 µg/mL. The “lowest concentration which inhibited ≥80% of biofilm formation” value ([14]; S. aureus ATCC 29213, 48 h) was 8 µg/mL, the “MIC BS” value [5] was 49.98 to 66.32 µM and the MIC [5] was 54.9 µM and 16 µg/mL.
In the case of `O=C(/C=C/c1ccccc1)Nc1cc(C(F)(F)F)cc(C(F)(F)F)c1` [Compound 13, (2E)-N-[3,5-bis(Trifluoromethyl)phenyl]-3-phenylprop-2-enamide], the minimal bactericidal concentrations (Staphylococcus aureus) is reported as at most 4 × MIC, the “Separate MIC” value (MRSA SA 630 [7]) is reported as 8 µg/mL and 4 µg/mL and the “Combined effect with vancomycin” value (MRSA SA 630 [7]; MRSA SA 630) is reported as “additivity”. For the same molecule, the “Combined effect with ciprofloxacin” value (MRSA SA 630 [7]; MRSA SA 630, synergy ΣFIC ≤ 0.5) was “synergistic”, the “Separate MIC” value (MRSA SA 3202 [1]) was 32 µg/mL and the “Combined effect with vancomycin” value (MRSA SA 3202 [1]; MRSA SA 3202) was “additivity”. The “Combined effect with ciprofloxacin” value (MRSA SA 3202 [1]; [16]) was “synergistic”, the “Combined effect with tetracycline” value (MRSA SA 3202 [1]; [16]) was “synergistic” and the MIC (MRSA 63718 [8]) was 22.27 µM (≈ 8 µg/mL). For the same molecule, the MIC (MRSA 63718 [8]; Staphylococcus aureus, MRSA) was 22.3 µM and 8 µg/mL, the MIC ([3]; Fusarium avenaceum) was 713 µM and 256 µg/mL and the IC50 (THP-1 cells; Homo sapiens, THP-1, 24 h) was 22 µM. The IC50 (THP-1 cells) was 22.6 ± 1.88 µM, the log k [9] was 0.981 and 0.9814 and the MIC ([10]; S. aureus ATCC 29213, 24 h) was 22.27 µM (≈ 8 µg/mL). The MIC [10, 15] was 22.3 µM and 8 µg/mL, the “bactericidal effect in time-kill curve assay” value (S. aureus ATCC 29213) was “bactericidal” and the IC50 [11] was 111 µM. For the same molecule, the MIC (MRSA SA 630 [12]) was 22.27 µM (≈ 8 µg/mL), the MIC (MRSA SA 630 [12]; Staphylococcus aureus, MRSA) was 22.3 µM and 8 µg/mL and the MIC (MRSA SA 3202 [13]) was 22.27 µM (≈ 8 µg/mL). For the same molecule, the MIC (MRSA SA 3202 [13]; Staphylococcus aureus, MRSA) was 22.3 µM and 8 µg/mL and the MIC [5] was 356 µM and 128 µg/mL.
With `CN[C@H](CC(C)C)C(=O)N[C@H]1C(=O)N[C@@H](CC(N)=O)C(=O)N[C@H]2C(=O)N[C@H]3C(=O)N[C@H](C(=O)N[C@H](C(=O)O)c4cc(O)cc(O)c4-c4cc3ccc4O)[C@H](O)c3ccc(c(Cl)c3)Oc3cc2cc(c3O[C@@H]2O[C@H](CO)[C@@H](O)[C@H](O)[C@H]2O[C@H]2C[C@](C)(N)[C@H](O)[C@H](C)O2)Oc2ccc(cc2Cl)[C@H]1O` [VAN, vancomycin, reference compound] the “Separate MIC” value (MRSA SA 630 [7]) was 1 µg/mL, the “Separate MIC” value (MRSA SA 3202 [1]) was 1 µg/mL and the “Separate MIC” value (MRSA 63718 [2]) was 2 µg/mL. For the same molecule, the “effect on biofilm formation” value ([14]; sub-MIC concentrations) was “induction of biofilm formation”.

— publication PMC6121455, “Synthesis and Spectrum of Biological Activities of Novel N-arylcinnamamides” (International Journal of Molecular Sciences, 2018)
